The text below walks through data of patent KR20170082372A, “Sirt6의 활성 조절용 조성물” (한국화학연구원, priority 2016, dated 2017).

This experiment addresses T1, recombinant Sirt6 enzyme (Homo sapiens, UniProt Q8N6T7).
T1 construct: purchased Cyclex CY-1156
The experiment in a line: CycLex Sirt6 deacetylase fluorometric assay (cat. CY-1156). The settings on record: 1 h, room temperature; for EC50: increase of Sirt6 deacetylase activity; for activity at 5 µM (stock): screening at 5uM, no test sample control = 100. In kind it is biochemical.

T1 sequence (Q8N6T7 whole entry): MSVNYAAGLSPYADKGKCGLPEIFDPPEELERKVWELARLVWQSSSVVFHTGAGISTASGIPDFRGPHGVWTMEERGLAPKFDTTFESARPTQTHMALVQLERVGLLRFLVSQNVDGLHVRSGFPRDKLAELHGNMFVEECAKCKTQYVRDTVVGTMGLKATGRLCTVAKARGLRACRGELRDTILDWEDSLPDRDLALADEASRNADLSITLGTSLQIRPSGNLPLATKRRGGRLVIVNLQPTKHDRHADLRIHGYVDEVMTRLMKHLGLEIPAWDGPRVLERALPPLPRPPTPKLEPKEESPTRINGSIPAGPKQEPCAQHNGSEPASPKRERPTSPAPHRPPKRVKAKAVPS

Take `NNc1nc2c(-c3cccc(C(F)(F)F)c3)nnn2c2ccccc12` [화학식 1, 5-hydrazinyl-3-(3-(trifluoromethyl)phenyl)-[1,2,3]triazolo[1,5-a]quinazoline]: the EC50 was 5 µM and the activity at 5 µM (stock) was at least 200%.
Turning to `COc1ccc(-c2nnn3c2nc(NC(C)c2ccccc2)c2ccccc23)cc1` (stereo not shown) [화학식 2, 3-(4-methoxyphenyl)-N-(1-phenylethyl)-[1,2,3]triazolo[1,5-a]quinazolin-5-amine], the EC50 stood at 2.8 µM and the activity at 5 µM (stock) is at least 200%.
